# Reference: paper PMC8899516, “Structure-Activity Relationship Studies of 4-((4-(2-fluorophenyl)piperazin-1-yl)methyl)-6-imino-N-(naphthalen-2-yl)-1,3,5-triazin-2-amine (FPMINT) Analogues as Inhibitors of Human Equilibrative Nucleoside Transporters” (Frontiers in Pharmacology, 2022)
# What was measured:
# ENT2 [1] = target: T1, ENT2 (Homo sapiens, UniProt Q14542); assay: Wash-out reversibility of [3H]uridine uptake inhibition in PK15NTD/ENT2 cells; type: cell-based; settings: 50 µM, incubation 1–60 min, washed five times
# T1 construct: expressed in transfected cells
# T1 sequence (Q14542 1-456): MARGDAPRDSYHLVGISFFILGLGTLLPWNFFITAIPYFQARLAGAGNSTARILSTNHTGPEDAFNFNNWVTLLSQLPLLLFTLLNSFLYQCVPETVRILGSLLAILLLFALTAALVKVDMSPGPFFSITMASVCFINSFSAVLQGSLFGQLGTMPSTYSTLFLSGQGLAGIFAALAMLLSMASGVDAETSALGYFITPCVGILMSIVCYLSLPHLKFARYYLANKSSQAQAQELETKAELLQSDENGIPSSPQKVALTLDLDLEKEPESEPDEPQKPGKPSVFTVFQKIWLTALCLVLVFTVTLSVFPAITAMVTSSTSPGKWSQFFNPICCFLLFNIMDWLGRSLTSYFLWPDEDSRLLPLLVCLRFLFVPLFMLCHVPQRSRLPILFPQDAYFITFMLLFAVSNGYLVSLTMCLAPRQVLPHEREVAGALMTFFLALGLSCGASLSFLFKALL
# Procedure: To determine whether the inhibitory effects of compound 3c were reversible or irreversible, PK15NTD/ENT1 and PK15NTD/ENT2 cells were incubated with 50 µM of compound 3c for different time periods (1–60 min). The cells were then washed five times with buffer. After wash-out for every single time [^3H]uridine uptake was measured. […] The longer the incubation time with compound 3c, the more difficult it was to wash-out the inhibitory effects of compound 3c.
# FIGURE 6 Reversibility of the inhibitory effects of compound 3c on ENT1 and ENT2 (A) PK15NTD/ENT1 and (B) PK15NTD/ENT2 cells were incubated with 50 μM of compound 3c or a vehicle (0.5% DMSO, as a control) for different time (0–60 min) The cells were then washed five times. After wash-out for every single time [^3H]uridine uptake (1 μM, 2 μCi/ml) was measured. Data are presented as mean ± SE of three experiments. ^* p < 0.05 compared with the fifth wash.
# PK15NTD/ENT1 cells = assay: Cell viability, MTT assay; type: cell-based, porcine; settings: 50 µM, 24 or 48 h
# Procedure: (§1) PK15NTD/ENT1 and PK15NTD/ENT2 cells were seeded onto 96-well plates until they reached 80–90% confluent. The cells were then treated with different concentrations of compound 3c or an equivalent volume of a vehicle (0.5% dimethyl sulfoxide (DMSO), as a control) in a serum-free medium for another 24 or 48 h. For measuring cell membrane integrity, the lactate dehydrogenase (LDH) released into the culture medium was measured with a detection kit (Abcam, Cambridge, UK) according to the manufacturer’s instructions. The absorbance at 490 nm was measured with a microplate absorbance reader. For measuring cell viability, 0.5 mg/ml methylthiazolyldiphenyl-tetrazolium bromide (MTT) was added to each well. […] The absorbance was measured at 560 nm, with the absorbance at 655 nm serving as the background.
# (§2) FIGURE 5 Effects of compound 3c on cytotoxicity and protein expressions of ENT1 and ENT2. Cytotoxicity of compound 3c was measured after 24 h or 48 h treatment of PK15NTD/ENT1 and PK15NTD/ENT2 cells with various concentrations of compound 3c (0.5, 5 and 50 μM) or a vehicle (0.5% DMSO, as a control) (A) The cell viability and (B) cell membrane integrity were determined by the MTT assay and LDH release, respectively (C) PK15NTD/ENT1 and (D) PK15NTD/ENT2 cells were incubated with 50 μM of compound 3c or a vehicle (0.5% DMSO, as a control) for 24 or 48 h. […]
# PK15NTD/ENT2 cells = assay: Cell viability, MTT assay; type: cell-based, porcine; settings: 50 µM, 24 or 48 h
# Procedure: as §1, §2
# ENT2 [2] = assay: Cell surface biotinylation and internalization assay; type: cell-based, human; settings: 50 µM, 24 h or 48 h, PK15NTD cells
# Procedure: (§3) To label all surface proteins, after washing with ice-cold PBS, PK15NTD/ENT1 and PK15NTD/ENT2 cells were incubated with sulfo-NHS-SS-biotin (300 μg/ml) for 30 min at 4°C to biotinylate cell surface proteins. The unbound biotin was washed away by PBS containing 0.1% BSA at 4°C. The biotinylated cells were then incubated with the original growth media with or without 50 µM compound 3c and returned to the 5% CO2 incubator at 37 °C for 24 h or 48 h for transporter internalization. Transporter trafficking was stopped by rapidly cooling the cells at 4°C. […]
# (§4) FIGURE 5 Effects of compound 3c on cytotoxicity and protein expressions of ENT1 and ENT2. Cytotoxicity of compound 3c was measured after 24 h or 48 h treatment of PK15NTD/ENT1 and PK15NTD/ENT2 cells with various concentrations of compound 3c (0.5, 5 and 50 μM) or a vehicle (0.5% DMSO, as a control) (A) The cell viability and (B) cell membrane integrity were determined by the MTT assay and LDH release, respectively (C) PK15NTD/ENT1 and (D) PK15NTD/ENT2 cells were incubated with 50 μM of compound 3c or a vehicle (0.5% DMSO, as a control) for 24 or 48 h. […] After cleavage of extracellular biotin, internalized biotinylated proteins were precipitated with immobilized streptavidin beads and detected with an anti-ENT1 and anti-ENT2 antibodies by western blotting. […]
# ENT1 = assay: as above; type: cell-based, human; settings: 50 µM, 24 h or 48 h, PK15NTD cells
# Procedure: as §3, §4
smiles,measurement,setting,value
Cc1cccc(Nc2nc(N)nc(CN3CCN(c4ccc(F)cc4)CC3)n2)c1 [Compound 3c],reversibility of inhibitory effect on ENT2 by washing,ENT2 [1],only partially reversed by washing
same,cell viability,PK15NTD/ENT1 cells,No significant changes
same,cell viability,PK15NTD/ENT2 cells,No significant changes
same,location of biotinylated ENT2 (internalization),ENT2 [2],exclusively found at the plasma membrane
same,location of biotinylated ENT1 (internalization),ENT1,exclusively found at the plasma membrane
